Structures can show the parent of a compound that is named as a salt.
Columns and labels:
KKAy mice [1] = assay: oral glucose tolerance test in KKAy mice after 21 days of oral administration; assay type: in vivo; details: male KKAy mice; oral once a day for 21 days; pitavastatin 10 mg/kg, pravastatin 50 mg/kg, enalapril maleate 1 mg/kg; glucose 2 g/kg oral after 18 h fasting; compared with control group (combination also vs single administration groups, P<0.05)
Description: Male KKAy mice (age: 10 weeks, Nippon Cler Co., Ltd.) were provided. Throughout the duration of the experiment, the mice were housed in a cage with a controlled light/dark cycle (duration of light period with a room light: 7:00 a.m. to 7:00 p.m.) at a temperature of 23±3° C. and a humidity of 55±15% and were allowed to freely take a solid chow (CE-2; Nippon Cler Co., Ltd.) and tap water. Pitavastatin and/or enalapril maleate were suspended in a 0.5-mass % aqueous solution of carboxymethyl cellulose (Iwai Kagaku Co., Ltd.) so that the pitavastatin content and the enalapril maleate content were adjusted to 1 mg/mL and 0.1 mg/mL, respectively. Since pitavastatin has a water content of 9.43%, pitavastatin was weighed in an amount of 1.1 times by mass the target dose for compensation. The suspension was refrigerated (4° C.) in a light-tight bottle. The suspensions were prepared every 7 days. Twenty four KKAy mice were randomly divided into the following four groups (six mice per group): a control group, a pitavastatin alone (10 mg/kg) group, an enalapril maleate alone (1 mg/kg) group, and a pitavastatin (10 mg/kg) and enalapril maleate (1 mg/kg) combined use group. Each of pitavastatin and enalapril maleate was orally administered once a day at a dose of 10 mL/kg for 21 days, and a 0.5 mass % aqueous sodium carboxymethyl cellulose solution (10 mL/kg) was orally administered to the control group. […] Immediately after collection, blood glucose level was determined by means of a […] reader (GR-101, product of Terumo Co., Ltd.). After determination of the initial blood glucose level, an aqueous glucose solution was orally administered to each mouse (2 g/10 mL/kg), and blood glucose level was determined in a similar manner at 15, 30, 60, and 120 minutes after administration of glucose. In each group, AUC of blood glucose level was calculated. The differences between the control group and the drug-administered groups were analyzed on the basis of Dunnett's multiple comparison test, preceded by Bartlett's analysis of variance. […]

KKAy mice [2] = details: type II diabetes model, reported in the literature; cited from earlier work

Row | SMILES | AUC of blood glucose level (to glucose tolerance hour 2) (KKAy mice [1]) | effect on impaired glucose tolerance / insulin resistance (KKAy mice [2])
1 | CCOC(=O)[C@H](CCc1ccccc1)N[C@@H](C)C(=O)N1CCC[C@H]1C(=O)O [enalapril maleate] | tended to be reduced | 
2 | O=C([O-])C[C@H](O)C[C@H](O)/C=C/c1c(C2CC2)nc2ccccc2c1-c1ccc(F)cc1.O=C([O-])C[C@H](O)C[C@H](O)/C=C/c1c(C2CC2)nc2ccccc2c1-c1ccc(F)cc1.[Ca+2] [pitavastatin, pitavastatin calcium] | tended to be reduced | effect of improving impaired glucose tolerance
3 | CC[C@H](C)C(=O)O[C@H]1C[C@H](O)C=C2C=C[C@H](C)[C@H](CC[C@@H](O)C[C@@H](O)CC(=O)O)[C@H]21 [pravastatin, pravastatin sodium] | tended to be reduced | effect of reversing impaired glucose tolerance
4 | CCOC(=O)[C@H](CCc1ccccc1)N[C@H]1CS[C@H](c2cccs2)CN(CC(=O)O)C1=O [temocapril] |  | reduction of insulin resistance

Reference: US8685952B2, “Method for the treatment of diabetes” (KOWA Co., Ltd., priority 2006, dated 2014)
